From US20200071310A1, “N-ARYL PYRAZOLES AS NRF2 REGULATORS” (GLAXOSMITHKLINE INTELLECTUAL PROPERTY DEVELOPMENT LIMITED, priority 2016, published 2020)

Molecular target: T1, Keap1 (321-609) Kelch domain / TAMRA-labeled NRF2 peptide (ETGE motif) (Homo sapiens, UniProt Q14145)
T1 construct: the Kelch domain (321-609) of Keap1 is used
Assay: NRF2-Keap1 FP Assay
Format: binding
Conditions: Keap1 (321-609) 20 nM, Tamra labeled peptide 8 nM
Description: One model for the NRF2-Keap1 interaction is through two binding sites in the Neh2 domain on NRF2. The two sites are referred to as the DLG binding motif (latch domain, uM affinity) and the ETGE binding motif (hinge domain, nM affinity). The Keap1 protein consists of an N-terminal region (NTR), a broad complex, tramtrack, and brick a' brac domain (BTB), an intervening region (IVR), a double glycine repeat domain (DGR or Kelch), and a C-terminal region. The DLG and ETGE motifs of NRF2's Neh2 domain bind to the Kelch domain of Keap1 at different affinities. In the Keap1 Kelch fluorescence polarization (FP) assay, a TAMRA-labeled 16mer peptide (AFFAQLQLDEETGEFL) containing the ETGE motif of NRF2 and the Kelch domain (321-609) of Keap1 is used. The assay determines if a compound interferes with the binding between Keap1 […] and the TAMRA-labeled peptide. Binding of TAMRA-labeled NRF2 peptide to Keap1 (321-609) results in a high FP signal. If a compound interferes with the binding between the peptide and the protein, it will cause the assay signal to decrease. Thus, assay signal is inversely proportional to binding inhibition.
100 nl of 100× compound dose response curves (serial 3-fold dilutions) in DMSO were stamped using an Echo liquid handling system (Labcyte) into 384-well low volume black assay plates (Greiner, #784076), with DMSO in columns 6 and 18. The top concentration of compound was located in columns 1 and 13. Keap1 (321-609) was diluted to 40 nM (2×) in 1× assay buffer (50 mM Tris, pH 8.0, 100 mM NaCl, 5 mM MgCl2, 1 mM DTT, 2 mM CHAPS, and 0.005% BSA) and 5 ul was added using a Multidrop Combi (Thermo Electron Corporation) equipped with a metal tip dispenser to all wells of the compound plate, except column 18. Column 18 received only 5 ul of assay buffer. Immediately, 5 uL of 16 nM (2×) of Tamra labeled peptide (AFFAQLQLDEETGEFL, 21st Century Biochemicals) was added to all wells of the plate. The plates were spun at 500 rpm for 1 min, incubated for 1 hr at room temperature, and read on an Analyst GT (Molecular Devices) equipped with excitation (530/25 nm) and emission (580/10 nm) filters designed for Tamra probes. A 561 nm dichroic mirror was also used in the Analyst. The final assay concentrations of Keap1l (321-609) and Tamra labeled peptide were 20 nM and 8 nM, respectively. Fluorescence measurements, represented as mP, were used in the transformation of the data. Compound activity was calculated based on percent inhibition, normalized against controls in the assay (Control 1 contains the Tamra peptide and Keap1 (321-609) together (0% response) and control 2 contains the Tamra peptide alone (100% response)). Data analysis was handled using the software package Abase XE (Surrey, United Kingdom. The % inhibition values were calculated by the equation:
100−(100*((compound response−average control 2)/(average control 1−average control2))).
For calculation of pIC50s, Abase XE used a four parameter equation.
IC50s<1 nM (+++++), IC50s 1 nM-10 nM (++++), IC50s 10-100 nM (+++), IC50s 100 nM-1 μM (++), IC50s 1-10 μM (+), IC50s>10 μM (−), or were not determined (ND).

T1 sequence (Q14145 321-609): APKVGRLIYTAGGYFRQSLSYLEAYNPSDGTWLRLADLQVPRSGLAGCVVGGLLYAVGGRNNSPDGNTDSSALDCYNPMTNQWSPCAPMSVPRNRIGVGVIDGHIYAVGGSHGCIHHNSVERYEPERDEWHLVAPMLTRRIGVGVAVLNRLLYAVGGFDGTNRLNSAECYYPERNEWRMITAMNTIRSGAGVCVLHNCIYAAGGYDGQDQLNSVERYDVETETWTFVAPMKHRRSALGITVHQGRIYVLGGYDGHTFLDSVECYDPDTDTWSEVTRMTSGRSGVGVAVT

Row | SMILES | EC50
1 | Cn1cc([C@@H]2C[C@H]2c2c(C(=O)O)cnn2-c2cccc(CN3CC(C)(C)Oc4ccc(F)cc4S3(=O)=O)c2)nn1 (racemic) [Example 5] | 0.001 to 0.01 µM
2 | CC[C@@H]1CN(Cc2cccc(-n3ncc(C(=O)O)c3[C@@H]3C[C@H]3c3cn(C)nn3)c2)Cc2ccccc2O1 (racemic) [Example 14] | 0.1 to 1 µM
3 | C[C@H]1Cc2ccc(C(F)(F)F)cc2S(=O)(=O)N(Cc2cccc(-n3ncc(C(=O)O)c3[C@@H]3C[C@H]3c3cn(C)nn3)c2)C1 (racemic) [Example 16, 1-(3-((4-methyl-1,1-dioxido-8-(trifluoromethyl)-4,5-dihydro-benzo[f][1,2]thiazepin-2(3H)-yl)methyl)phenyl)-5-((trans)-2-(1-methyl-1H-1,2,3-triazol-4-yl)cyclopropyl)-1H-pyrazole-4-carboxylic acid] | 0.001 to 0.01 µM
4 | C[C@H]1Cc2ccc(Br)cc2S(=O)(=O)N(Cc2cccc(-n3ncc(C(=O)O)c3[C@@H]3C[C@H]3c3cn(C)nn3)c2)C1 (racemic) [Example 17, 1-(3-((8-bromo-4-methyl-1,1-dioxido-4,5-dihydrobenzo[f][1,2]thiazepin-2(3H)-yl)methyl)phenyl)-5-((trans)-2-(1-methyl-1H-1,2,3-triazol-4-yl)cyclopropyl)-1H-pyrazole-4-carboxylic acid] | 0.001 to 0.01 µM
5 | C[C@@H]1Cc2cc(C(F)(F)F)ccc2S(=O)(=O)N(Cc2cccc(-n3ncc(C(=O)O)c3[C@@H]3C[C@H]3c3cn(C)nn3)c2)C1 (racemic) [Example 18, 1-(3-((4-methyl-1,1-dioxido-7-(trifluoromethyl)-4,5-dihydro-benzo[f][1,2]thiazepin-2(3H)-yl)methyl)phenyl)-5-((trans)-2-(1-methyl-1H-1,2,3-triazol-4-yl)cyclopropyl)-1H-pyrazole-4-carboxylic acid] | 0.001 to 0.01 µM
6 | C[C@H]1Cc2cc(C(F)(F)F)ccc2S(=O)(=O)N(Cc2cccc(-n3ncc(C(=O)O)c3[C@@H]3C[C@H]3c3cn(C)nn3)c2)C1 (racemic) [Example 19, 1-(3-((4-methyl-1,1-dioxido-7-(trifluoromethyl)-4,5-dihydro-benzo[f][1,2]thiazepin-2(3H)-yl)methyl)phenyl)-5-((trans)-2-(1-methyl-1H-1,2,3-triazol-4-yl)cyclopropyl)-1H-pyrazole-4-carboxylic acid] | 0.1 to 1 µM
7 | Cn1cc([C@@H]2C[C@H]2c2c(C(=O)O)cnn2-c2cccc(Cn3ccnc3CC3CCCCCC3)c2)nn1 (racemic) [Example 23] | 0.001 to 0.01 µM
8 | Cn1cc([C@@H]2C[C@H]2c2c(C(=O)O)cnn2-c2cccc(Cn3ccnc3CN3CCCCC3)c2)nn1 (racemic) [Example 24] | 0.01 to 0.1 µM
9 | CCCCCCN(Cc1cccc(-n2ncc(C(=O)O)c2[C@@H]2C[C@H]2c2cn(C)nn2)c1)S(=O)(=O)c1cccc(-c2ccccc2)c1 (racemic) [Example 34, 1-(3-((N-hexyl-[1,1′-biphenyl]-3-ylsulfonamido)methyl)phenyl)-5-((trans)-2-(1-methyl-1H-1,2,3-triazol-4-yl)cyclopropyl)-1H-pyrazole-4-carboxylic acid] | 0.001 to 0.01 µM
10 | Cc1ccccc1S(=O)(=O)N(C)Cc1cccc(-n2ncc(C(=O)O)c2[C@@H]2C[C@H]2c2cn(C)nn2)c1 (racemic) [Example 42, 1-(3-((N,2-dimethylphenylsulfonamido)methyl)phenyl)-5-((trans)-2-(1-methyl-1H-1,2,3-triazol-4-yl)cyclopropyl)-1H-pyrazole-4-carboxylic acid] | 0.1 to 1 µM
11 | COc1ccccc1S(=O)(=O)N(C)Cc1cccc(-n2ncc(C(=O)O)c2[C@@H]2C[C@H]2c2cn(C)nn2)c1 (racemic) [Example 47, 1-(3-((2-methoxy-N-methylphenylsulfonamido)methyl)phenyl)-5-((trans)-2-(1-methyl-1H-1,2,3-triazol-4-yl)cyclopropyl)-1H-pyrazole-4-carboxylic acid] | 0.1 to 1 µM

Now from value to compound:

Row | EC50 | SMILES
12 | 0.01 to 0.1 µM | Cn1cc([C@@H]2C[C@H]2c2c(C(=O)O)cnn2-c2cccc(CN3Cc4ccccc4CC(C)(C)C3)c2)nn1 (racemic) [Example 7]
13 | 0.01 to 0.1 µM | Cn1cc([C@@H]2C[C@H]2c2c(C(=O)O)cnn2-c2cccc(CN3Cc4ccccc4OC(C)(C)C3)c2)nn1 (racemic) [Example 8]
14 | 0.01 to 0.1 µM | Cn1cc([C@@H]2C[C@H]2c2c(C(=O)O)cnn2-c2cccc(CN3Cc4ncccc4OC(C)(C)C3)c2)nn1 (racemic) [Example 9]
15 | 0.001 to 0.01 µM | Cn1cc([C@@H]2C[C@H]2c2c(C(=O)O)cnn2-c2cccc(CN3Cc4cc(Br)ccc4OC(C)(C)C3)c2)nn1 (racemic) [Example 13]
16 | 0.01 to 0.1 µM | CN(Cc1cccc(-n2ncc(C(=O)O)c2[C@@H]2C[C@H]2c2cn(C)nn2)c1)S(=O)(=O)c1cccc(Oc2ccccc2)c1 (racemic) [Example 35, 5-((trans)-2-(1-methyl-1H-1,2,3-triazol-4-yl)cyclo-propyl)-1-(3-((N-methyl-3-phenoxy-phenyl-sulfonamido)-methyl)phenyl)-1H-pyrazole-4-carboxylic acid]
17 | 0.01 to 0.1 µM | CCCCCCN(Cc1cccc(-n2ncc(C(=O)O)c2[C@@H]2C[C@H]2c2cn(C)nn2)c1)S(=O)(=O)c1ccccc1C (racemic) [Example 37, 1-(3-((N-hexyl-2-methylphenylsulfonamido)methyl)phenyl)-5-((trans)-2-(1-methyl-1H-1,2,3-triazol-4-yl)cyclo-propyl)-1H-pyrazole-4-carboxylic acid]
18 | 0.1 to 1 µM | COc1ccc(Cl)cc1S(=O)(=O)N(C)Cc1cccc(-n2ncc(C(=O)O)c2[C@@H]2C[C@H]2c2cn(C)nn2)c1 (racemic) [Example 40, 1-(3-((5-chloro-2-methoxy-N-methylphenyl-sulfonamido)-methyl)phenyl)-5-((trans)-2-(1-methyl-1H-1,2,3-triazol-4-yl)cyclo-propyl)-1H-pyrazole-4-carboxylic acid]
19 | 0.1 to 1 µM | CN(Cc1cccc(-n2ncc(C(=O)O)c2[C@@H]2C[C@H]2c2cn(C)nn2)c1)S(=O)(=O)c1c(Cl)cccc1C(F)(F)F (racemic) [Example 41, 1-(3-((2-chloro-N-methyl-6-(trifluoro-methyl)phenyl-sulfonamido)-methyl)phenyl)-5-((trans)-2-(1-methyl-1H-1,2,3-triazol-4-yl)cyclo-propyl)-1H-pyrazole-4-carboxylic acid]
20 | 0.1 to 1 µM | COc1ccc(Br)cc1S(=O)(=O)N(C)Cc1cccc(-n2ncc(C(=O)O)c2[C@@H]2C[C@H]2c2cn(C)nn2)c1 (racemic) [Example 43, 1-(3-((5-bromo-2-methoxy-N-methylphenylsulfonamido)methyl)phenyl)-5-((trans)-2-(1-methyl-1H-1,2,3-triazol-4-yl)cyclopropyl)-1H-pyrazole-4-carboxylic acid]
21 | 0.1 to 1 µM | COc1cc([N+](=O)[O-])ccc1S(=O)(=O)N(C)Cc1cccc(-n2ncc(C(=O)O)c2[C@@H]2C[C@H]2c2cn(C)nn2)c1 (racemic) [Example 44, 1-(3-((2-methoxy-N-methyl-4-nitrophenylsulfonamido)methyl)phenyl)-5-((trans)-2-(1-methyl-1H-1,2,3-triazol-4-yl)cyclopropyl)-1H-pyrazole-4-carboxylic acid]
22 | 0.1 to 1 µM | CCOc1ccccc1S(=O)(=O)N(C)Cc1cccc(-n2ncc(C(=O)O)c2[C@@H]2C[C@H]2c2cn(C)nn2)c1 (racemic) [Example 45, 1-(3-((2-ethoxy-N-methylphenylsulfonamido)methyl)phenyl)-5-((trans)-2-(1-methyl-1H-1,2,3-triazol-4-yl)cyclopropyl)-1H-pyrazole-4-carboxylic acid]
23 | 0.1 to 1 µM | CN(Cc1cccc(-n2ncc(C(=O)O)c2[C@@H]2C[C@H]2c2cn(C)nn2)c1)S(=O)(=O)c1ccccc1OC(F)(F)F (racemic) [Example 46, 5-((trans)-2-(1-methyl-1H-1,2,3-triazol-4-yl)cyclopropyl)-1-(3-((N-methyl-2-(trifluoromethoxy)phenylsulfonamido)methyl)phenyl)-1H-pyrazole-4-carboxylic acid]
